From patent US20080274892A1, “Novel Haloalkylsulfonanilide Derivative, Herbicide, and Method of Use Thereof” (priority 2005, published 2008)

What was measured:
false pimpernel [1] = experiment: Test Example 2: herbicidal efficacy on rice paddy weeds post-emergence; format: in vivo, Lindernia pyxidaria; conditions: 21 days after treatment
Text: (§1) The standard of judgment for herbicidal efficacy (degree of growth inhibition) and phytotoxicity 4 . . . 90%-100% of herbicidal efficacy or phytotoxicity 3 . . . 70%-89% of herbicidal efficacy or phytotoxicity 2 . . . 40%-69% of herbicidal efficacy or phytotoxicity 1 . . . 1%-39% of herbicidal efficacy or phytotoxicity 0 . . . 0% of herbicidal efficacy or phytotoxicity
(§2) A 75 cm^2 plastic pot was filled with soil (clay loam) and planted seeds of barnyard glass and bulrush which is a rice paddy weed. After covering the top with 75 cm^3 soil mixed with seeds of false pimpernel, the pot was filled with water so that the soil submerged under 5 cm depth of water and kept in a hot house. […] The pot was kept in a hot house for 21 days after the treatment and the herbicidal efficacy was investigated and evaluated according to the standard in Test Example 1 by comparing with the untreated control. “-” in the table represents test not done.

[2] = system: paddy rice plant (cultivar: Nihonbare); experiment: Test Example 3: phytotoxicity test for transplanted paddy rice plant; format: in vivo; conditions: 21 days after treatment; for Phytotoxicity to paddy rice: transplanted rice
Protocol: as §1
A 75 cm^2 plastic pot was filled with soil (clay loam), and water was added so that the soil was submerged under 5 cm depth of water. Two paddy rice plant (cultivar: Nihonbare) at two leaves stage were transplanted at the depth of 1 cm and kept in a hot house. […] The pot was kept in a hot house for 21 days after the treatment and the phytotoxicity was investigated and evaluated according to the standard in Test Example 1 by comparing with the untreated control. “-” in the table represents test not done.

false pimpernel [3] = experiment: Test Example 1: herbicidal efficacy on rice paddy weeds pre-emergence; format: in vivo, Lindernia pyxidaria; conditions: 21 days
Protocol: (§3) A 75 cm^2 plastic pot was filled with soil (clay loam) and planted seeds of bulrush which is a rice paddy weed. After covering the top with 75 cm^3 soil mixed with seeds of false pimpernel, the pot was filled with water so that the soil submerged under 5 cm depth of water. The predetermined effective dosage ([…]) of a formulation containing the compound of the present invention prepared according to Formulation Example 1-4 as an active ingredient was diluted in water and added to the pot water surface dropwise. The pot was kept in a hot house for 21 days and the herbicidal efficacy was investigated. The herbicidal efficacy was evaluated according to the following standard by comparing with untreated control. “-” in the table represents test not done.
as §1

bulrush [4] = experiment: as above; format: in vivo, Scirpus juncoides; conditions: 21 days
Protocol: as §3, §1

bulrush [5] = experiment: Test Example 2: herbicidal efficacy on rice paddy weeds post-emergence; format: in vivo, Scirpus juncoides; conditions: 21 days after treatment
Text: as §1, §2

[6] = dosage 300 g/ha, post-emergence, one leaf stage
[7] = dosage 1000 g/ha, post-emergence, one leaf stage
[8] = dosage 1000 g/ha, treated 5 days after transplantation
[9] = dosage 1000 g/ha active ingredient, post-emergence treatment at one leaf stage, vs untreated control

O=C1OC2(CC2)CN1Cc1ccccc1NS(=O)(=O)C(F)(F)F [Compound 1-88]
False pimpernel post (herbicidal efficacy grade) (false pimpernel [1]; [6]): 4 (90%-100% of herbicidal efficacy or phytotoxicity) | Phytotoxicity to paddy rice ([2]; dosage 300 g/ha): 1 (1%-39% of herbicidal efficacy or phytotoxicity) | False pimpernel pre (herbicidal efficacy grade) (false pimpernel [3]; dosage 300 g/ha): 4 (90%-100% of herbicidal efficacy or phytotoxicity) | Bulrush pre (herbicidal efficacy grade) (bulrush [4]; dosage 300 g/ha): 4 (90%-100% of herbicidal efficacy or phytotoxicity) | Bulrush post (herbicidal efficacy grade) (bulrush [5]; [6]): 4 (90%-100% of herbicidal efficacy or phytotoxicity)

CC1(C)OC1C1(C)CN(Cc2ccccc2NS(=O)(=O)C(F)(F)F)C(=O)O1 (stereo not shown) [Compound 1-176]
False pimpernel post (herbicidal efficacy grade) (false pimpernel [1]; [7]): 4 (90%-100% of herbicidal efficacy or phytotoxicity) | Phytotoxicity to paddy rice [2, 8]: 1 (1%-39% of herbicidal efficacy or phytotoxicity) | False pimpernel pre (herbicidal efficacy grade) (false pimpernel [3]; dosage 1000 g/ha): 4 (90%-100% of herbicidal efficacy or phytotoxicity) | Bulrush pre (herbicidal efficacy grade) (bulrush [4]; dosage 1000 g/ha): 4 (90%-100% of herbicidal efficacy or phytotoxicity) | Bulrush post (herbicidal efficacy grade) (bulrush [5]; [7]): 4 (90%-100% of herbicidal efficacy or phytotoxicity)

CCc1cn(Cc2ccccc2NS(=O)(=O)C(F)(F)F)c(=O)o1 [Compound 1-209]
False pimpernel post (herbicidal efficacy grade) (false pimpernel [1]; [6]): 2 (40%-69% of herbicidal efficacy or phytotoxicity) | Phytotoxicity to paddy rice ([2]; dosage 300 g/ha): 1 (1%-39% of herbicidal efficacy or phytotoxicity) | False pimpernel pre (herbicidal efficacy grade) (false pimpernel [3]; dosage 300 g/ha): 4 (90%-100% of herbicidal efficacy or phytotoxicity) | Bulrush pre (herbicidal efficacy grade) (bulrush [4]; dosage 300 g/ha): 3 (70%-89% of herbicidal efficacy or phytotoxicity) | Bulrush post (herbicidal efficacy grade) (bulrush [5]; [6]): 3 (70%-89% of herbicidal efficacy or phytotoxicity)

COCC1CN(Cc2ccccc2NS(=O)(=O)C(F)(F)F)C(=O)O1 (stereo not shown) [Compound 1-35]
False pimpernel post (herbicidal efficacy grade) (false pimpernel [1]; [7]): 4 (90%-100% of herbicidal efficacy or phytotoxicity) | Phytotoxicity to paddy rice [2, 8]: 1 (1%-39% of herbicidal efficacy or phytotoxicity) | False pimpernel pre (herbicidal efficacy grade) (false pimpernel [3]; dosage 1000 g/ha): 4 (90%-100% of herbicidal efficacy or phytotoxicity) | Bulrush pre (herbicidal efficacy grade) (bulrush [4]; dosage 1000 g/ha): 4 (90%-100% of herbicidal efficacy or phytotoxicity) | Bulrush post (herbicidal efficacy grade) (bulrush [5]; [7]): 4 (90%-100% of herbicidal efficacy or phytotoxicity)

CC(C)=CC1(C)CN(Cc2ccccc2N(C(=O)OCC(C)C)S(=O)(=O)C(F)(F)F)C(=O)O1 (stereo not shown) [Compound 1-165]
False pimpernel post (herbicidal efficacy grade) (false pimpernel [1]; [7]): 4 (90%-100% of herbicidal efficacy or phytotoxicity) | Phytotoxicity to paddy rice [2, 8]: 1 (1%-39% of herbicidal efficacy or phytotoxicity) | False pimpernel pre (herbicidal efficacy grade) (false pimpernel [3]; dosage 1000 g/ha): 4 (90%-100% of herbicidal efficacy or phytotoxicity) | Bulrush pre (herbicidal efficacy grade) (bulrush [4]; dosage 1000 g/ha): 4 (90%-100% of herbicidal efficacy or phytotoxicity) | Bulrush post (herbicidal efficacy grade) (bulrush [5]; [7]): 4 (90%-100% of herbicidal efficacy or phytotoxicity)

CCC1OC(=O)N(Cc2ccccc2N(C(=O)OCC(C)C)S(=O)(=O)C(F)(F)F)C1=O (stereo not shown) [Compound 1-193]
False pimpernel post (herbicidal efficacy grade) (false pimpernel [1]; [6]): 1 (1%-39% of herbicidal efficacy or phytotoxicity) | Phytotoxicity to paddy rice ([2]; dosage 300 g/ha): 0 (0% of herbicidal efficacy or phytotoxicity) | False pimpernel pre (herbicidal efficacy grade) (false pimpernel [3]; dosage 300 g/ha): 4 (90%-100% of herbicidal efficacy or phytotoxicity) | Bulrush pre (herbicidal efficacy grade) (bulrush [4]; dosage 300 g/ha): 4 (90%-100% of herbicidal efficacy or phytotoxicity) | Bulrush post (herbicidal efficacy grade) (bulrush [5]; [6]): 4 (90%-100% of herbicidal efficacy or phytotoxicity)

CCOC1N(Cc2ccccc2NS(=O)(=O)C(F)(F)F)C(=O)OC1(C)C (stereo not shown) [Compound 1-198]
Phytotoxicity to paddy rice ([2]; dosage 300 g/ha): 2 (40%-69% of herbicidal efficacy or phytotoxicity) | Bulrush pre (herbicidal efficacy grade) (bulrush [4]; dosage 300 g/ha): 4 (90%-100% of herbicidal efficacy or phytotoxicity)

CC(C)COC(=O)N(c1ccccc1CN1CC(C)(c2ccccc2)OC1=O)S(=O)(=O)C(F)(F)F (stereo not shown) [Compound 1-141]
False pimpernel post (herbicidal efficacy grade) (false pimpernel [1]; [6]): 4 (90%-100% of herbicidal efficacy or phytotoxicity) | Phytotoxicity to paddy rice ([2]; dosage 300 g/ha): 1 (1%-39% of herbicidal efficacy or phytotoxicity) | False pimpernel pre (herbicidal efficacy grade) (false pimpernel [3]; dosage 300 g/ha): 4 (90%-100% of herbicidal efficacy or phytotoxicity) | Bulrush pre (herbicidal efficacy grade) (bulrush [4]; dosage 300 g/ha): 3 (70%-89% of herbicidal efficacy or phytotoxicity) | Bulrush post (herbicidal efficacy grade) (bulrush [5]; [6]): 4 (90%-100% of herbicidal efficacy or phytotoxicity)

COC(=O)N(c1ccccc1CN1CC(C)(C=C(C)C)OC1=O)S(=O)(=O)C(F)(F)F (stereo not shown) [Compound 1-166]
False pimpernel post (herbicidal efficacy grade) (false pimpernel [1]; [7]): 4 (90%-100% of herbicidal efficacy or phytotoxicity) | Phytotoxicity to paddy rice [2, 8]: 2 (40%-69% of herbicidal efficacy or phytotoxicity) | False pimpernel pre (herbicidal efficacy grade) (false pimpernel [3]; dosage 1000 g/ha): 4 (90%-100% of herbicidal efficacy or phytotoxicity) | Bulrush pre (herbicidal efficacy grade) (bulrush [4]; dosage 1000 g/ha): 4 (90%-100% of herbicidal efficacy or phytotoxicity) | Bulrush post (herbicidal efficacy grade) (bulrush [5]; [7]): 4 (90%-100% of herbicidal efficacy or phytotoxicity)

CCc1cn(Cc2ccccc2N(C(=O)OCC(C)C)S(=O)(=O)C(F)(F)F)c(=O)o1 [Compound 1-210]
False pimpernel post (herbicidal efficacy grade) (false pimpernel [1]; [6]): 0 (0% of herbicidal efficacy or phytotoxicity) | Phytotoxicity to paddy rice ([2]; dosage 300 g/ha): 0 (0% of herbicidal efficacy or phytotoxicity) | False pimpernel pre (herbicidal efficacy grade) (false pimpernel [3]; dosage 300 g/ha): 4 (90%-100% of herbicidal efficacy or phytotoxicity) | Bulrush pre (herbicidal efficacy grade) (bulrush [4]; dosage 300 g/ha): 3 (70%-89% of herbicidal efficacy or phytotoxicity) | Bulrush post (herbicidal efficacy grade) (bulrush [5]; [6]): 4 (90%-100% of herbicidal efficacy or phytotoxicity)

CC(C)COC(=O)N(c1ccccc1CN1CC(C)(C2CCCCC2)OC1=O)S(=O)(=O)C(F)(F)F (stereo not shown) [Compound 1-156]
False pimpernel post (herbicidal efficacy grade) (false pimpernel [1]; [6]): 4 (90%-100% of herbicidal efficacy or phytotoxicity) | Phytotoxicity to paddy rice ([2]; dosage 300 g/ha): 1 (1%-39% of herbicidal efficacy or phytotoxicity) | False pimpernel pre (herbicidal efficacy grade) (false pimpernel [3]; dosage 300 g/ha): 4 (90%-100% of herbicidal efficacy or phytotoxicity) | Bulrush pre (herbicidal efficacy grade) (bulrush [4]; dosage 300 g/ha): 4 (90%-100% of herbicidal efficacy or phytotoxicity) | Bulrush post (herbicidal efficacy grade) (bulrush [5]; [6]): 4 (90%-100% of herbicidal efficacy or phytotoxicity)

CC1OC(=O)N(Cc2ccccc2NS(=O)(=O)C(F)(F)F)C1=O (stereo not shown) [Compound 1-190]
False pimpernel post (herbicidal efficacy grade) (false pimpernel [1]; [6]): 2 (40%-69% of herbicidal efficacy or phytotoxicity) | Phytotoxicity to paddy rice ([2]; dosage 300 g/ha): 0 (0% of herbicidal efficacy or phytotoxicity) | False pimpernel pre (herbicidal efficacy grade) (false pimpernel [3]; dosage 300 g/ha): 4 (90%-100% of herbicidal efficacy or phytotoxicity) | Bulrush pre (herbicidal efficacy grade) (bulrush [4]; dosage 300 g/ha): 4 (90%-100% of herbicidal efficacy or phytotoxicity) | Bulrush post (herbicidal efficacy grade) (bulrush [5]; [6]): 4 (90%-100% of herbicidal efficacy or phytotoxicity)

CC(C)COC(=O)N(c1ccccc1CN1C(=O)OC(C)C1=O)S(=O)(=O)C(F)(F)F (stereo not shown) [Compound 1-191]
False pimpernel post (herbicidal efficacy grade) (false pimpernel [1]; [6]): 2 (40%-69% of herbicidal efficacy or phytotoxicity) | Phytotoxicity to paddy rice ([2]; dosage 300 g/ha): 0 (0% of herbicidal efficacy or phytotoxicity) | False pimpernel pre (herbicidal efficacy grade) (false pimpernel [3]; dosage 300 g/ha): 4 (90%-100% of herbicidal efficacy or phytotoxicity) | Bulrush pre (herbicidal efficacy grade) (bulrush [4]; dosage 300 g/ha): 4 (90%-100% of herbicidal efficacy or phytotoxicity) | Bulrush post (herbicidal efficacy grade) (bulrush [5]; [6]): 4 (90%-100% of herbicidal efficacy or phytotoxicity)

CCCCCCCCCCCCCCCCOC(=O)N(c1ccccc1CN1CC(C)(C)OC1=O)S(=O)(=O)C(F)(F)F [Compound 1-84]
False pimpernel post (herbicidal efficacy grade) (false pimpernel [1]; [6]): 4 (90%-100% of herbicidal efficacy or phytotoxicity) | Phytotoxicity to paddy rice ([2]; dosage 300 g/ha): 1 (1%-39% of herbicidal efficacy or phytotoxicity) | False pimpernel pre (herbicidal efficacy grade) (false pimpernel [3]; dosage 300 g/ha): 4 (90%-100% of herbicidal efficacy or phytotoxicity) | Bulrush pre (herbicidal efficacy grade) (bulrush [4]; dosage 300 g/ha): 4 (90%-100% of herbicidal efficacy or phytotoxicity) | Bulrush post (herbicidal efficacy grade) (bulrush [5]; [6]): 3 (70%-89% of herbicidal efficacy or phytotoxicity)

CC1(C)CN(Cc2ccccc2N(C(=O)OCc2ccccc2)S(=O)(=O)C(F)(F)F)C(=O)O1 [Compound 1-83]
False pimpernel post (herbicidal efficacy grade) (false pimpernel [1]; [6]): 1 (1%-39% of herbicidal efficacy or phytotoxicity) | Phytotoxicity to paddy rice ([2]; dosage 300 g/ha): 0 (0% of herbicidal efficacy or phytotoxicity) | False pimpernel pre (herbicidal efficacy grade) (false pimpernel [3]; dosage 300 g/ha): 1 (1%-39% of herbicidal efficacy or phytotoxicity) | Bulrush pre (herbicidal efficacy grade) (bulrush [4]; dosage 300 g/ha): 4 (90%-100% of herbicidal efficacy or phytotoxicity) | Bulrush post (herbicidal efficacy grade) (bulrush [5]; [6]): 4 (90%-100% of herbicidal efficacy or phytotoxicity)

COCOc1cccc(CN2CC(C)(C)OC2=O)c1N(C(=O)OCC(C)C)S(=O)(=O)C(F)(F)F [1-213]
False pimpernel post (herbicidal efficacy grade) (false pimpernel [1]; [9]): 2 (40%-69% of herbicidal efficacy or phytotoxicity) | Phytotoxicity to paddy rice (grade) ([2]; dosage 1000 g/ha active ingredient, treated 5 days after transplantation, vs untreated control): 1 (1%-39% of herbicidal efficacy or phytotoxicity) | Bulrush pre (herbicidal efficacy grade) (bulrush [4]; dosage 1000 g/ha active ingredient, vs untreated control): 4 (90%-100% of herbicidal efficacy or phytotoxicity) | Bulrush post (herbicidal efficacy grade) (bulrush [5]; [9]): 4 (90%-100% of herbicidal efficacy or phytotoxicity)
